From publication PMC2917201 (Molecular cell, 2010)

Biological target: T1, MuSK(cyto) (Rattus norvegicus, UniProt Q62838)
T1 sequence (Q62838 529-868): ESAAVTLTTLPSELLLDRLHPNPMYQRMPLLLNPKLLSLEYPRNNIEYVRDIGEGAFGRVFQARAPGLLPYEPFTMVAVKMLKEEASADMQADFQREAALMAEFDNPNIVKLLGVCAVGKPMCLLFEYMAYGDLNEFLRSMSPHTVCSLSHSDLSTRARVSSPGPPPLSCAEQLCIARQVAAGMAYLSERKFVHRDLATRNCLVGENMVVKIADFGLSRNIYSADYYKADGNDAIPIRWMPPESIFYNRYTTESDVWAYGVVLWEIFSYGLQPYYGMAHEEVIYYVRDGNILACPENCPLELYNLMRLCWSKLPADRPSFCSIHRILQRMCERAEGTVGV
Experiment: autophosphorylation, anti-pTyr754 immunoblot
Type: biochemical
Conditions: 5 mM ATP, 50 mM MgCl2, 25 mM Tris-HCl pH 7.5, 0.5 mM sodium vanadate, 10 mM TCEP, room temperature; MuSK alone, no Dok7

Compound: Nc1ncnc2c1ncn2[C@@H]1O[C@H](COP(=O)(O)OP(=O)(O)OP(=O)(O)O)[C@@H](O)[C@H]1O [ATP]
- autophosphorylation, anti-pTyr754 immunoblot: With MuSK alone, incubation with Mg-ATP results in a relatively slow rate of autophosphorylation
